This is an account of results in ChEMBL document CHEMBL2303647, “Data associated with the publication PLoS ONE, 8(3), e57888, (2013) PMID: 23505445. Compounds: GSK PKIS; Assays: NIH NCATS”.

By AC50 is commonly meant the concentration giving half of the maximal activity seen.

Assay [1] has as its target Luciferin 4-monooxygenase (Photinus pyralis, UniProt P08659).
Description: GSK_PKIS: Inhibition of Firefly Luciferase (Data from PubChem: AID 652016) [NIH NCATS]
The target of assay [2] is T1, Coelenterazine h 2-monooxygenase (Renilla reniformis, UniProt P27652).
T1 sequence (P27652 whole entry): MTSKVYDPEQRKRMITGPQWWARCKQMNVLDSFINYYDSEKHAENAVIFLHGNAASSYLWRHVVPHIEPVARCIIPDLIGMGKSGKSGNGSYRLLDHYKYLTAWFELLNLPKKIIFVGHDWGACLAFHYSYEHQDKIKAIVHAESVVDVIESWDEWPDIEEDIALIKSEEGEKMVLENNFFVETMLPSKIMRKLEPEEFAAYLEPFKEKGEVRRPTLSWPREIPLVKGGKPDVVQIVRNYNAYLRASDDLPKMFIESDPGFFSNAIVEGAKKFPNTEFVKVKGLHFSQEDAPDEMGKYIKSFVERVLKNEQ
Description: GSK_PKIS: Inhibition of Sea Pansy Luciferase (Data from PubChem: AID 652015) [NIH NCATS]

Sequence of Luciferin 4-monooxygenase (P08659 whole entry): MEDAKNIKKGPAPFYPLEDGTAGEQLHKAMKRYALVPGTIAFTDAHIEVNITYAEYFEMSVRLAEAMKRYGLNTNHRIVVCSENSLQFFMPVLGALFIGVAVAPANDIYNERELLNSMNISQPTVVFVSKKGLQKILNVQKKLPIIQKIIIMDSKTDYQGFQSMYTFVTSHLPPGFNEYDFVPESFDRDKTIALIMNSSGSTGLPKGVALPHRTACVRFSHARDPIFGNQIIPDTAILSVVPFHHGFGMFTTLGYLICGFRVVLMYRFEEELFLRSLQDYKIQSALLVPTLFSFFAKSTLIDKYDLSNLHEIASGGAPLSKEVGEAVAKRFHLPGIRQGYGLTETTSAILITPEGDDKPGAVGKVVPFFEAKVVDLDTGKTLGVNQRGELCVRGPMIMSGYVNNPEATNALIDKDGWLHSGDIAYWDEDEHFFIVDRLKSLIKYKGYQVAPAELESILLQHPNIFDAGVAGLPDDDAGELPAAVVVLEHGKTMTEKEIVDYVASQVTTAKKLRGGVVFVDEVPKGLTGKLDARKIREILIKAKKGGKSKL

For the compound `CCCNc1cccc(-n2ncc3c(N/N=C/c4ccncc4)ncnc32)c1` [GW794607X], the AC50 result in assay [1] and in assay [2] was “Phenotype: Inactive; Curve_Description: None” in each case.
As to `CC(=O)Nc1cccc(C#Cc2cncnc2Nc2ccc(OCc3cccc(F)c3)c(Cl)c2)n1` [GW794726X], the AC50 result in assay [1] and in assay [2] was “Phenotype: Inactive; Curve_Description: None” in each case.
As for `Nc1ncnc2occ(-c3ccc(NC(=O)Nc4cc(C(F)(F)F)cc(C(F)(F)F)c4)cc3)c12` [GW795486X], the AC50 result was “Phenotype: Inactive; Curve_Description: None” in assay [1] and 16.3 µM in assay [2] (read-out: AC50).
Turning to `Nc1ncnc2occ(-c3ccc(NC(=O)Nc4cccc(C(F)(F)F)c4)cc3)c12` [GW795493X], the AC50 result in assay [1] and in assay [2] was “Phenotype: Inactive; Curve_Description: None” in each case.
For `Cc1ccc(NC(=O)CC2CC2)cc1-c1ccc(C(=O)NCC2CC2)cc1` [GW796920X], the half-maximal activity concentration (AC50) in assay [1] (read-out: AC50) is 18.3 µM; in assay [2], “Phenotype: Inactive; Curve_Description: None”.
Taken in the same sequence, the figures for `CCC(=O)Nc1ccc(C)c(-c2ccc(C(=O)NCC3CC3)cc2)c1` [GW796921X] were 18.3 µM and “Phenotype: Inactive; Curve_Description: None”.
On to `Nc1nccc(C#Cc2cncnc2Nc2ccc(OCc3cccc(F)c3)c(Cl)c2)n1` [GW799251X], for which the AC50 in assay [1] (read-out: AC50) was 14.6 µM; in assay [2], “Phenotype: Inactive; Curve_Description: None”.
Take `COc1cc(Nc2nccc(-c3cnn4ncccc34)n2)cc(OC)c1` [GW801372X]: the AC50 result in assay [1] and in assay [2] was “Phenotype: Inactive; Curve_Description: None” throughout.
As for `COc1cccc(COc2cc(-n3cnc4ccccc43)sc2C(N)=O)c1` [GW804482X], the results for the AC50 result in assay [1] and in assay [2] (read-out: AC50) were “Phenotype: Inactive; Curve_Description: None” and 20.6 µM, respectively.
On to `CC(C)c1ccc(Nc2nccc(-c3cnn4ncccc34)n2)cc1` [GW805758X], for which the half-maximal activity concentration (AC50) in assay [1] (read-out: AC50) was 20.6 µM; in assay [2], “Phenotype: Inactive; Curve_Description: None”.
Turning to `c1cnn2ncc(-c3ccnc(Nc4ccc5c(c4)OCCO5)n3)c2c1` [GW806290X], the figures for the AC50 in assay [1] (read-out: AC50) and in assay [2] were 2.91 µM and “Phenotype: Inactive; Curve_Description: None”, respectively.
In the case of `CN(c1ccc(NC(=O)Nc2ccc(OC(F)(F)F)cc2)cc1)c1ccnc(Nc2cccc(S(N)(=O)=O)c2)n1` [GW806742X], the concentration at half-maximal activity (AC50) in assay [1] (read-out: AC50) is 18.3 µM; in assay [2], “Phenotype: Inactive; Curve_Description: None”.
As to `O=C(NCC1CC1)c1ccc(-c2cccc(C(=O)NC3CC3)c2)cc1` [GW806776X], the AC50 in assay [1] (read-out: AC50) is 9.19 µM; in assay [2] (read-out: AC50), 7.3 µM.
Turning to `CC(=O)NCc1cccc(C#Cc2cncnc2Nc2ccc(OCc3cccc(F)c3)c(Cl)c2)c1` [GW807930X], the AC50 result in assay [1] is “Phenotype: Activator; Curve_Description: None”; in assay [2] it was “Phenotype: Inactive; Curve_Description: None”.
Turning to `CCOc1ccc2c(-c3ccnc(Nc4cc(OC)cc(C(F)(F)F)c4)n3)cnn2n1` [GW807982X], the AC50 is 14.6 µM in assay [1] (read-out: AC50) and “Phenotype: Activator; Curve_Description: None” in assay [2].
Turning to `COc1cccc(-n2nc(C)c3c(N/N=C(\C)c4ccncc4)ncnc32)c1` [GW809885X], the AC50 entry in assay [1] and in assay [2] was “Phenotype: Inactive; Curve_Description: None” in each case.
As for `CN(c1ccc(NC(=O)Nc2c(Cl)cccc2Cl)cc1)c1ccnc(Nc2cccc(CS(C)(=O)=O)c2)n1` [GW809897X], the concentration at half-maximal activity (AC50) is 0.58 µM in assay [1] (read-out: AC50) and “Phenotype: Inactive; Curve_Description: None” in assay [2].
Turning to `COc1ccc2c(-c3ccnc(Nc4cccc(OC(F)(F)F)c4)n3)cnn2n1` [GW810372X], the AC50 entry in assay [1] is “Phenotype: Inactive; Curve_Description: None”; in assay [2], “Phenotype: Activator; Curve_Description: None”.
Consider `CCOc1ccc2c(-c3ccnc(Nc4cccc(C(F)(F)F)c4)n3)cnn2n1` [GW811761X], for which the AC50 entry in assay [1] and in assay [2] was “Phenotype: Inactive; Curve_Description: None” each time.
For the compound `COc1cccc(-n2cnc3c(N/N=C/c4ccncc4)ncnc32)c1` [GW813360X], the AC50 was 16.3 µM in assay [1] (read-out: AC50) and “Phenotype: Inactive; Curve_Description: None” in assay [2].
For `COc1cccc(-c2c[nH]c3c(N/N=C/c4ccncc4)ncnc23)c1` [GW814408X] the same measures were 5.8 µM and “Phenotype: Inactive; Curve_Description: None”.
In the case of `COc1cccc(-n2ncc3c(N/N=C/c4cccc(F)c4)ncnc32)c1` [GW817394X], the values for the AC50 in assay [1] (read-out: AC50) and in assay [2] were 18.3 µM and “Phenotype: Inactive; Curve_Description: None”, respectively.
Regarding `COc1cccc(-n2ncc3c(N/N=C/c4ccc(F)cc4)ncnc32)c1` [GW817396X], the AC50 in assay [1] (read-out: AC50) worked out at 32.6 µM; in assay [2] (read-out: AC50) it was 0.0005 µM.
For `FC(F)(F)c1cccc(Nc2nccc(-c3cnn4nc(-c5ccccc5)ccc34)n2)c1` [GW819077X], the AC50 result in assay [1] and in assay [2] was “Phenotype: Inactive; Curve_Description: None” in each case.
Consider `Cc1ccc(-c2cc3c(NC(=O)C4CC4)ncnc3o2)cc1` [GW819230X], for which the AC50 in assay [1] (read-out: AC50) is 18.3 µM; in assay [2] it was “Phenotype: Inactive; Curve_Description: None”.
For the compound `Cc1ccc(C(=O)NC2CC2)cc1-c1ccc2[nH]ncc2c1` [GW820759X], the figures for the AC50 in assay [1] (read-out: AC50) and in assay [2] (read-out: AC50) were 18.3 µM and 20.6 µM, respectively.
Take `Cl.NS(=O)(=O)c1cccc(Nc2cc(-c3ccc(F)cc3)n[nH]2)c1` [GW824645A]: the AC50 was 11.6 µM in assay [1] (read-out: AC50) and “Phenotype: Inactive; Curve_Description: None” in assay [2].
Taken in the same sequence, the figures for `Fc1ccc(-c2nn3ncccc3c2-c2ccnc(Nc3ccc4c(c3)OCCO4)n2)cc1` [GW827099X] were 18.3 µM and “Phenotype: Inactive; Curve_Description: None”.
`FC(F)(F)c1cccc(-c2nn3ncccc3c2-c2ccnc(Nc3ccc4c(c3)OCCO4)n2)c1` [GW827102X]: the figures for the AC50 in assay [1] (read-out: AC50) and in assay [2] were 32.6 µM and “Phenotype: Inactive; Curve_Description: None”, respectively.
With `COc1ccc(-c2nn3ncccc3c2-c2ccnc(Nc3cccc(C(F)(F)F)c3)n2)cc1` [GW827105X], the AC50 entry in assay [1] and in assay [2] was “Phenotype: Inactive; Curve_Description: None” in each case.
On to `COc1ccc(-c2nn3ncccc3c2-c2ccnc(Nc3ccc4c(c3)OCCO4)n2)cc1` [GW827106X], for which the AC50 entry in assay [1] and in assay [2] was “Phenotype: Inactive; Curve_Description: None” throughout.
In the case of `COc1ccc(-c2nn3ncccc3c2-c2ccnc(Nc3ccc(F)c(F)c3)n2)cc1` [GW827396X], the half-maximal activity concentration (AC50) result in assay [1] and in assay [2] was “Phenotype: Inactive; Curve_Description: None” throughout.
As for `FC(F)(F)c1ccc(-c2nn3ncccc3c2-c2ccnc(Nc3ccc4c(c3)OCCO4)n2)cc1` [GW828525X], the AC50 entry in assay [1] and in assay [2] was “Phenotype: Inactive; Curve_Description: None” each time.
In the case of `Fc1ccc(Nc2nccc(-c3c(-c4ccc(C(F)(F)F)cc4)nn4ncccc34)n2)cc1F` [GW828529X], the AC50 entry in assay [1] and in assay [2] was “Phenotype: Inactive; Curve_Description: None” throughout.
